The values that follow come from patent US20230257351A1, “SUBSTITUTED N-[…] HAVING P2X4 RECEPTOR ANTAGONISTIC ACTIVITY” (Bayer Aktiengesellschaft, priority 2020, published 2023).

The assay deals with T1, human P2X4 (Homo sapiens, UniProt Q99571).
T1 construct: expressed in transfected cells
T1 sequence (Q99571 1-388): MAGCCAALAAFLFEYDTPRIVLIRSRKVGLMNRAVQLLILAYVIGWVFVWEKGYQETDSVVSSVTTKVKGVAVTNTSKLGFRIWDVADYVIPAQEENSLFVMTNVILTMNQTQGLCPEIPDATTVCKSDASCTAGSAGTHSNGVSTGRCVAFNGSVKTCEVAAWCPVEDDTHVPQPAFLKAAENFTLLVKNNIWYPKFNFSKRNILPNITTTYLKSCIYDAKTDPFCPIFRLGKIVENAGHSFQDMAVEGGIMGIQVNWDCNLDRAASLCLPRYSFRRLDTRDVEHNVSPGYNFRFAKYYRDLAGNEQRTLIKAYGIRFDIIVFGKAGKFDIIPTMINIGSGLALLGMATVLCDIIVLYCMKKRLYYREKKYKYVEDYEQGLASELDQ
The assay can be described thus: Human P2X4 HEK Cell FLIPR Assay. In kind it is cell-based. The following applies: HEK293 stably expressing human P2X4, agonist Bz-ATP 3 μM (EC80); for IC50: read-out: Human P2X4 HEK Cells (FLIPR Assay) avg IC50. The method, boiled down: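 Compounds were preincubated 30 min at room temperature on Fluo8-AM-loaded HEK293 cells stably expressing human P2X4. The response was the calcium fluorescence rise on Bz-ATP addition.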

With `CC(=O)N(c1ccc(S(C)(=O)=O)c(Cl)c1)c1cc(NC(=O)Cc2ccccc2Cl)ccn1` [Example 157, N-[3-Chlor-4-(methylsulfonyl)phenyl]-N-{4-[2-(2-chlorphenyl)acetamido]pyridin-2-yl}acetamide], the “Human P2X4 HEK Cells (FLIPR Assay) avg Efficacy” value (from here on “Human P2X4 HEK Cells”) turned out to be 97% and the IC50 was determined as 644 nM.
Take `CC(=O)N(c1ccc(S(C)(=O)=O)c(Cl)c1)c1cc(NC(=O)Cc2c(F)cccc2Cl)ccn1` [Example 158, N-{4-[2-(2-Chlor-6-fluorphenyl)acetamido]pyridin-2-yl}-N-[3-chlor-4-(methylsulfonyl)phenyl]acetamide]: the “Human P2X4 HEK Cells” value is 97% and the IC50 was determined as 649 nM.
As for `CC(=O)N(c1ccc(S(C)(=O)=O)c(Cl)c1)c1cc(NC(=O)Cc2ccc(F)cc2Cl)ccn1` [Example 159, N-{4-[2-(2-Chlor-4-fluorphenyl)acetamido]pyridin-2-yl}-N-[3-chlor-4-(methylsulfonyl)phenyl]acetamide], the “Human P2X4 HEK Cells” value was found to be 99% and the IC50 worked out at 949 nM.
Turning to `COc1cc(F)cc(N(C(C)=O)c2cc(NC(=O)Cc3cccc(F)c3Cl)ccn2)c1` [Example 160, N-{4-[2-(2-Chlor-3-fluorphenyl)acetamido]pyridin-2-yl}-N-(3-fluor-5-methoxyphenyl)acetamide], the “Human P2X4 HEK Cells” value is listed as 101% and the IC50 stood at 383 nM.
In the same order, the values of `COc1cc(F)cc(N(C(C)=O)c2cc(NC(=O)Cc3ccccc3Cl)ccn2)c1` [Example 161, N-{4-[2-(2-Chlorphenyl)acetamido]pyridin-2-yl}-N-(3-fluor-5-methoxyphenyl)acetamide] are 101% and 479 nM.
In the same order, the values of `COc1cc(F)cc(N(C(C)=O)c2cc(NC(=O)Cc3c(Cl)cccc3Cl)ccn2)c1` [Example 162, N-{4-[2-(2,6-Dichlorphenyl)acetamido]pyridin-2-yl}-N-(3-fluor-5-methoxyphenyl)acetamide] are 104% and 577 nM.
Regarding `COc1cc(F)cc(N(C(C)=O)c2cc(NC(=O)Cc3ccc(F)cc3Cl)ccn2)c1` [Example 163, N-{4-[2-(2-Chlor-4-fluorphenyl)acetamido]pyridin-2-yl}-N-(3-fluor-5-methoxyphenyl)acetamide], the “Human P2X4 HEK Cells” value is listed as 100% and the IC50 was 665 nM.
In the same order, the values of `COc1cc(F)cc(N(C(C)=O)c2cc(NC(=O)Cc3c(F)cccc3Cl)ccn2)c1` [Example 164, N-{4-[2-(2-Chlor-6-fluorphenyl)acetamido]pyridin-2-yl}-N-(3-fluor-5-methoxyphenyl)acetamide] are 100% and 683 nM.
The like results for `CC(=O)N(c1cc(NC(=O)Cc2c(Cl)cccc2Cl)ccn1)c1ccccc1C(F)F` [Example 165, N-{4-[2-(2,6-Dichlorphenyl)acetamido]pyridin-2-yl}-N-[2-(difluormethyl)phenyl]acetamide] were, in that order, 99% and 402 nM.
The like results for `CC(=O)N(c1cc(NC(=O)Cc2ccccc2Cl)ccn1)c1ccccc1C(F)F` [Example 166, N-{4-[2-(2-Chlorphenyl)acetamido]pyridin-2-yl}-N-[2-(difluormethyl)phenyl]acetamide] were, in that order, 97% and 663 nM.
For `CC(=O)N(c1cc(NC(=O)Cc2cccc(F)c2Cl)ccn1)c1ccccc1C(F)F` [Example 167, N-{4-[2-(2-Chlor-3-fluorphenyl)acetamido]pyridin-2-yl}-N-[2-(difluormethyl)phenyl]acetamide], the “Human P2X4 HEK Cells” value turned out to be 100% and the IC50 is 677 nM.
The like results for `CC(=O)N(c1cc(NC(=O)Cc2c(F)cccc2Cl)ccn1)c1ccccc1C(F)F` [Example 168, N-{4-[2-(2-Chlor-6-fluorphenyl)acetamido]pyridin-2-yl}-N-[2-(difluormethyl)phenyl]acetamide] were, in that order, 99% and 761 nM.
Take `CC(=O)N(c1cc(NC(=O)Cc2ccc(F)cc2Cl)ccn1)c1ccccc1C(F)F` [Example 169, N-{4-[2-(2-Chlor-4-fluorphenyl)acetamido]pyridin-2-yl}-N-[2-(difluormethyl)phenyl]acetamide]: the “Human P2X4 HEK Cells” value is listed as 101% and the IC50 came to 813 nM.
Consider `CC(=O)N(c1cc(NC(=O)Cc2ccccc2Cl)ccn1)c1ccc(C)cc1C` [Example 170, N-{4-[2-(2-Chlorphenyl)acetamido]pyridin-2-yl}-N-(2,4-dimethylphenyl)acetamide], for which the “Human P2X4 HEK Cells” value stood at 104% and the IC50 was 468 nM.
In the same order, the values of `CC(=O)N(c1cc(NC(=O)Cc2cccc(F)c2Cl)ccn1)c1ccc(C)cc1C` [Example 171, N-{4-[2-(2-Chlor-3-fluorphenyl)acetamido]pyridin-2-yl}-N-(2,4-dimethylphenyl)acetamide] are 103% and 511 nM.
Regarding `CC(=O)N(c1cc(NC(=O)Cc2c(F)cccc2Cl)ccn1)c1ccc(C)cc1C` [Example 172, N-{4-[2-(2-Chlor-6-fluorphenyl)acetamido]pyridin-2-yl}-N-(2,4-dimethylphenyl)acetamide], the “Human P2X4 HEK Cells” value is given as 104% and the IC50 stood at 520 nM.
The like results for `CC(=O)N(c1cc(NC(=O)Cc2c(Cl)cccc2Cl)ccn1)c1ccc(C)cc1C` [Example 173, N-{4-[2-(2,6-Dichlorphenyl)acetamido]pyridin-2-yl}-N-(2,4-dimethylphenyl)acetamide] were, in that order, 104% and 526 nM.
With `CC(=O)N(c1cc(NC(=O)Cc2ccc(F)cc2Cl)ccn1)c1ccc(C)cc1C` [Example 174, N-{4-[2-(2-Chlor-4-fluorphenyl)acetamido]pyridin-2-yl}-N-(2,4-dimethylphenyl)acetamide], the “Human P2X4 HEK Cells” value is on record as 103% and the IC50 was determined as 528 nM.
For `CC(=O)N(c1cc(C)cc(C#N)c1)c1cc(NC(=O)Cc2ccccc2Cl)ccn1` [Example 175, N-{4-[2-(2-Chlorphenyl)acetamido]pyridin-2-yl}-N-(3-cyan-5-methylphenyl)acetamide], the “Human P2X4 HEK Cells” value is given as 97% and the 50% inhibitory concentration (IC50) came to 516 nM.
The like results for `CC(=O)N(c1cc(C)cc(C#N)c1)c1cc(NC(=O)Cc2c(Cl)cccc2Cl)ccn1` [Example 176, N-(3-Cyan-5-methylphenyl)-N-{4-[2-(2,6-dichlorphenyl)acetamido]pyridin-2-yl}acetamide] were, in that order, 101% and 567 nM.
With `CC(=O)N(c1cc(C)cc(C#N)c1)c1cc(NC(=O)Cc2cccc(F)c2Cl)ccn1` [Example 177, N-{4-[2-(2-Chlor-3-fluorphenyl)acetamido]pyridin-2-yl}-N-(3-cyan-5-methylphenyl)acetamide], the “Human P2X4 HEK Cells” value turned out to be 96% and the IC50 was determined as 578 nM.
Consider `CC(=O)N(c1cc(C)cc(C#N)c1)c1cc(NC(=O)Cc2ccc(F)cc2Cl)ccn1` [Example 178, N-{4-[2-(2-Chlor-4-fluorphenyl)acetamido]pyridin-2-yl}-N-(3-cyan-5-methylphenyl)acetamide], for which the “Human P2X4 HEK Cells” value stood at 99% and the concentration for half-maximal inhibition (IC50) is 621 nM.
